Measurements reported in ChEMBL document CHEMBL1129834, “A boronated benzamide as melanoma-seeking agent” (Bioorg Med Chem Lett, 1997).

Columns and labels:
[1] = Compound was evaluated for the biodistribution of tumor-imaging agent in B16 melanoma bearing mice muscle upon intraveneous administration at 2.6 gmol/mice after 1 hour; assay type: ADME, organism-based, Muscle tissue; settings: mus sp., in vivo, iv
[2] = Partition coefficient (logP); assay type: physicochemical; settings: octanol/water
[3] = Compound was evaluated for the biodistribution of tumor-imaging agent in B16 melanoma bearing mice spleen upon intraveneous administration at 2.6 gmol/mice after 1 hour; assay type: ADME, organism-based; settings: mus sp., in vivo, iv
[4] = Compound was evaluated for the biodistribution of tumor-imaging agent in B16 melanoma bearing mice upon intraveneous administration at 2.6 gmol/mice after 3 hour; assay type: ADME, organism-based; settings: mus sp., in vivo, iv
[5] = Compound was evaluated for the biodistribution of tumor-imaging agent in B16 melanoma bearing mice kidney upon intraveneous administration at 2.6 gmol/mice after 1 hour; assay type: ADME, organism-based; settings: mus sp., in vivo, iv
[6] = Compound was evaluated for the biodistribution of tumor-imaging agent in B16 melanoma bearing mice liver upon intraveneous administration at 2.6 gmol/mice after 1 hour; assay type: ADME, organism-based; settings: mus sp., in vivo, iv
[7] = Compound was evaluated for the biodistribution of tumor-imaging agent in B16 melanoma bearing mice lungs upon intraveneous administration at 2.6 gmol/mice after 3 hour; assay type: ADME, organism-based; settings: mus sp., in vivo, iv
[8] = Compound was evaluated for the biodistribution of tumor-imaging agent in B16 melanoma bearing mice muscle upon intraveneous administration at 2.6 gmol/mice after 24 hour; assay type: ADME, organism-based, Muscle tissue; settings: mus sp., in vivo, iv
[9] = Acute toxicity of compound in OF1 mice; assay type: organism-based; settings: OF1, mouse, in vivo
[10] = Compound was evaluated for the biodistribution of tumor-imaging agent in B16 melanoma bearing mice brain upon intraveneous administration at 2.6 gmol/mice after 3 hour; assay type: ADME, organism-based; settings: mus sp., in vivo, iv
[11] = Compound was evaluated for the biodistribution of tumor-imaging agent in B16 melanoma bearing mice liver upon intraveneous administration at 2.6 gmol/mice after 3 hour; assay type: ADME, organism-based; settings: mus sp., in vivo, iv
[12] = Compound was evaluated for the biodistribution of tumor-imaging agent in B16 melanoma bearing mice blood upon intraveneous administration at 2.6 gmol/mice after 1 hour; assay type: ADME, organism-based; settings: mus sp., in vivo, iv
[13] = Compound was evaluated for the biodistribution of tumor-imaging agent in B16 melanoma bearing mice liver upon intraveneous administration at 2.6 gmol/mice after 24 hour; assay type: ADME, organism-based; settings: mus sp., in vivo, iv
[14] = Compound was evaluated for the biodistribution of tumor-imaging agent in B16 melanoma bearing mice upon intraveneous administration at 2.6 gmol/mice after 24 hour; assay type: ADME, organism-based; settings: mus sp., in vivo, iv
[15] = Compound was evaluated for the biodistribution of tumor-imaging agent in B16 melanoma bearing mice kidney upon intraveneous administration at 2.6 gmol/mice after 3 hour; assay type: ADME, organism-based; settings: mus sp., in vivo, iv
[16] = Compound was evaluated for the biodistribution of tumor-imaging agent in B16 melanoma bearing mice spleen upon intraveneous administration at 2.6 gmol/mice after 3 hour; assay type: ADME, organism-based; settings: mus sp., in vivo, iv
[17] = Compound was evaluated for the biodistribution of tumor-imaging agent in B16 melanoma bearing mice uvea upon intraveneous administration at 2.6 gmol/mice after 3 hour; assay type: ADME, organism-based, Uveal tract; settings: mus sp., in vivo, iv
[18] = Compound was evaluated for the biodistribution of tumor-imaging agent in B16 melanoma bearing mice kidney upon intraveneous administration at 2.6 gmol/mice after 24 hour; assay type: ADME, organism-based; settings: mus sp., in vivo, iv
[19] = Compound was evaluated for the biodistribution of tumor-imaging agent in B16 melanoma bearing mice lungs upon intraveneous administration at 2.6 gmol/mice after 1 hour; assay type: ADME, organism-based; settings: mus sp., in vivo, iv
[20] = Compound was evaluated for the biodistribution of tumor-imaging agent in B16 melanoma bearing mice upon intraveneous administration at 2.6 gmol/mice after 1 hour; assay type: ADME, organism-based; settings: mus sp., in vivo, iv
[21] = Compound was evaluated for the biodistribution of tumor-imaging agent in B16 melanoma bearing mice blood upon intraveneous administration at 2.6 gmol/mice after 3 hour; assay type: ADME, organism-based; settings: mus sp., in vivo, iv
[22] = Compound was evaluated for the biodistribution of tumor-imaging agent in B16 melanoma bearing mice muscle upon intraveneous administration at 2.6 gmol/mice after 3 hour; assay type: ADME, organism-based, Muscle tissue; settings: mus sp., in vivo, iv
[23] = Compound was evaluated for the biodistribution of tumor-imaging agent in B16 melanoma bearing mice uvea upon intraveneous administration at 2.6 gmol/mice after 24 hour; assay type: ADME, organism-based, Uveal tract; settings: mus sp., in vivo, iv
[24] = Compound was evaluated for the biodistribution of tumor-imaging agent in B16 melanoma bearing mice brain upon intraveneous administration at 2.6 gmol/mice after 1 hour; assay type: ADME, organism-based; settings: mus sp., in vivo, iv

`CCN(CC)CCNC(=O)c1ccc(B2OCCCO2)cc1` showed an Injected dose/g [1] of 2.95%, a logP [2] of -1 and an Injected dose/g [3] of 2.61%. The Injected dose/g [4] was 2.89%, the Injected dose/g [5] was 4.88% and the Injected dose/g [6] was 5.11%. The Injected dose/g [7] was 1.24%, the Injected dose/g [8] was 0.04% and the LD50 [9] was 1860 µmol/kg. It also gave an Injected dose/g [10] of 0.18%, an Injected dose/g [11] of 4.76% and an Injected dose/g [12] of 2.53%. The Injected dose/g [13] was 0.22%, the Injected dose/g [14] was 0.52% and the Injected dose/g [15] was 3.38%. The Injected dose/g [16] was 1.53%, the Injected dose/g [17] was 2.78% and the Injected dose/g [18] was 0.13%. For the same compound, the Injected dose/g [19] was 1.91%, the Injected dose/g [20] was 3.26% and the Injected dose/g [21] was 0.97%. The Injected dose/g [22] was 1.96%, the Injected dose/g [23] was 0.84% and the Injected dose/g [24] was 0.19%.
